According to patent US20240024488A1, “COMPOUNDS AND USES THEREOF” (Foghorn Therapeutics Inc., priority 2020, published 2024):

Tests used:
[1] = molecular target: T1, HiBit-BRM fusion protein (Homo sapiens, UniProt P51531); test: HiBiT-BRM cell-based degradation assay (Nano-Glo HiBiT Lytic Detection, 24 h); conditions: HeLa cell line expressing HiBiT-BRM; for DC50: read-out: BRM HiBit Degradation IC50
T1 construct: expressed in transfected cells
Summary of the method: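 Luminescence from reconstituted NanoBiT luciferase in lysed HeLa HiBiT-BRM cells served as the measure of remaining BRM after 24 h treatment. Compounds were tested from 30 μM final downward in 3-fold steps. DMSO and 2 μM of a standard BRM/BRG1 degrader defined the scale limits.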

[2] = molecular target: T2, HiBit-BRG1 fusion protein (Homo sapiens, UniProt P51532); test: HiBiT-BRG1 cell-based degradation assay (Nano-Glo HiBiT Lytic Detection, 24 h); conditions: HeLa cell line expressing HiBit-BRG1 and LgBit; for Dmax: read-out: BRG1 HiBit Degradation Maximum (%); for DC50: read-out: BRMG1 HiBit Degradation IC50
T2 construct: expressed in transfected cells
T2 sequence (P51532 whole entry, the tested form may be a part): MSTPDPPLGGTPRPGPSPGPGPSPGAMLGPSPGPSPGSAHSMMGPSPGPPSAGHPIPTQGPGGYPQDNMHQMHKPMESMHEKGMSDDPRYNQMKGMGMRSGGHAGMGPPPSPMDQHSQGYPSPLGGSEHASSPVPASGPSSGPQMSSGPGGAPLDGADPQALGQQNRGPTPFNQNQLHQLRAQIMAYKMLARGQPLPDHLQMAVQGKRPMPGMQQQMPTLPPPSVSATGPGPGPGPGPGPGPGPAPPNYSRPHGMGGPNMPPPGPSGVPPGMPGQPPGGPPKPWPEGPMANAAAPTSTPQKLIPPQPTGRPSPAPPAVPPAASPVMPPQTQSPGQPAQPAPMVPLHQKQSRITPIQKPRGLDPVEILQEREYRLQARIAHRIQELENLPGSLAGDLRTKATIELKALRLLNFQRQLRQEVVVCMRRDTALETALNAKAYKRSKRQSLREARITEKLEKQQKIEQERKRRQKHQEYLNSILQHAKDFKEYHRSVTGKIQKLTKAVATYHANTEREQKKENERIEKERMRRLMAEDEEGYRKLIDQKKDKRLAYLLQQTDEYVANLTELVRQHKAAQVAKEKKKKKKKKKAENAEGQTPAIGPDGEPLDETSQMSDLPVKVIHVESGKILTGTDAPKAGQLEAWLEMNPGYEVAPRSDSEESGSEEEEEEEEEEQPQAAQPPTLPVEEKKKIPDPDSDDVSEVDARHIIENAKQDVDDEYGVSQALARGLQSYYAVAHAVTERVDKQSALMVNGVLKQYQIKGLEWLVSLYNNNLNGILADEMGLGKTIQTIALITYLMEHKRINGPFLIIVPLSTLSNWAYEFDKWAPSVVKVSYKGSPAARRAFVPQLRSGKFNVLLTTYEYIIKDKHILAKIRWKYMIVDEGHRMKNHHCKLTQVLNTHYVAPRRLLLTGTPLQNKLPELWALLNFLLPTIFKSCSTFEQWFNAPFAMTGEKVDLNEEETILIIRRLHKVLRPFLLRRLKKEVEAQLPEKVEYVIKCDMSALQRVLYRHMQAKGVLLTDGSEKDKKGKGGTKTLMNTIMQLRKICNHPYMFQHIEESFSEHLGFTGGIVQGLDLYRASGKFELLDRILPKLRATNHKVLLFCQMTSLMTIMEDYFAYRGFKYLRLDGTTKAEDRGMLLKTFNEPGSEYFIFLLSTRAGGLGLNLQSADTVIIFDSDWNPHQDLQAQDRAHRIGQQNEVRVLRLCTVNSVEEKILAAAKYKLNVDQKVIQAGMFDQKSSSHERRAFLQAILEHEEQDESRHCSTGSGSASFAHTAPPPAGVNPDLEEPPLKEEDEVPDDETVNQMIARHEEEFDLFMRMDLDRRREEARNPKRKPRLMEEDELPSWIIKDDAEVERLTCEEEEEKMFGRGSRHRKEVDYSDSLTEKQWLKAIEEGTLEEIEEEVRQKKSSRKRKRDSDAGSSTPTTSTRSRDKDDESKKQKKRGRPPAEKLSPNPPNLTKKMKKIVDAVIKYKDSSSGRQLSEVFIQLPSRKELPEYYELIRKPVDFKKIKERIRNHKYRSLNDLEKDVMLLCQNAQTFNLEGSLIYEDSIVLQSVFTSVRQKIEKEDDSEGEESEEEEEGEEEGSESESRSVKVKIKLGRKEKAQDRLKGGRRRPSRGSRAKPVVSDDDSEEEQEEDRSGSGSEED
Summary of the method: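 Seed 5000 HeLa HiBit-BRG1/LgBit cells per well; treat 24 h; equilibrate 15 min at room temperature; add Nano-Glo HiBiT lytic reagent, shake 10 min, read luminescence. Percent degradation is scaled between DMSO and 2 μM reference degrader wells.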

T1 sequence (P51531 whole entry, the tested form may be a part): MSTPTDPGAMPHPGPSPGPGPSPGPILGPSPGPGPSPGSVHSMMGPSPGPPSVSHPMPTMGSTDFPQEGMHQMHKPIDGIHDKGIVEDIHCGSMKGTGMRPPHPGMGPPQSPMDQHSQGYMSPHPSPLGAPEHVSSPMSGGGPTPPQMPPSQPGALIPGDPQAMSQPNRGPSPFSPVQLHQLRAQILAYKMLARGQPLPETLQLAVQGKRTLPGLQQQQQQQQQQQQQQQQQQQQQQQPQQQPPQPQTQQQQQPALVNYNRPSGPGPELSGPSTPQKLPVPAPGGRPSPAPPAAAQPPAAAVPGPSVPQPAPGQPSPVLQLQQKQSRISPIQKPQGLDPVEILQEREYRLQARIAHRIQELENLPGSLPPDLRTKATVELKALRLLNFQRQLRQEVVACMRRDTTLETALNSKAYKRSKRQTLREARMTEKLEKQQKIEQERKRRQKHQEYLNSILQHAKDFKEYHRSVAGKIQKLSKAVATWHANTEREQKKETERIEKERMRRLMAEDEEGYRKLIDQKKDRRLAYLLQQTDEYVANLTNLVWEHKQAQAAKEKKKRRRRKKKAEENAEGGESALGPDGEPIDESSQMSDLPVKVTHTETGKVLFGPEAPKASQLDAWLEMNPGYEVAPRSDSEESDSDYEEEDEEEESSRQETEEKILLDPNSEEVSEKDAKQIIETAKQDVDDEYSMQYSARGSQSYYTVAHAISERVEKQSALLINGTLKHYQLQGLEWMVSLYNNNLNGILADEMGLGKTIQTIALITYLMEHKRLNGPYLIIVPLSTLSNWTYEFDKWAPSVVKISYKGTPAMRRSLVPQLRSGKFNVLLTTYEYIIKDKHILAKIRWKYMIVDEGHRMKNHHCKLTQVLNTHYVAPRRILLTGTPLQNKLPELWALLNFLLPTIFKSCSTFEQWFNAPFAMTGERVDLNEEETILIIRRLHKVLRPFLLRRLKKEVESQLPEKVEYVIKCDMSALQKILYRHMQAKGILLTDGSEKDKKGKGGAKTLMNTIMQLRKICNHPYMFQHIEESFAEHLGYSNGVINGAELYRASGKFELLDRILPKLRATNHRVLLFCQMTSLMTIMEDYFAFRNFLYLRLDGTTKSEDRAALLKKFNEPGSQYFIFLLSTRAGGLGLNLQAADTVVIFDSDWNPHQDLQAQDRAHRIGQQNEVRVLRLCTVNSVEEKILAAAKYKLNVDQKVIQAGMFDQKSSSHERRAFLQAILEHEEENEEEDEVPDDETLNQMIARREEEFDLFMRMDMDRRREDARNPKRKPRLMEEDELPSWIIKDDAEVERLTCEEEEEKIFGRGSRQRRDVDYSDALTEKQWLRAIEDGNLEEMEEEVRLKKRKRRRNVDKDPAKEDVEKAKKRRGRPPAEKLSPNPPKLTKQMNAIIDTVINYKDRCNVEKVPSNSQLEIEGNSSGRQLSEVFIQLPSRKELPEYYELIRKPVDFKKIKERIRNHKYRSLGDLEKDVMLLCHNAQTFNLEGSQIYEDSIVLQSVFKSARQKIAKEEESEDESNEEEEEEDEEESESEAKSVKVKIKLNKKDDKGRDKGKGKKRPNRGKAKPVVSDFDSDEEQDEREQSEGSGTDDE

| SMILES | BRM HiBit Degradation Maximum (%) [1] | DC50 [1] [nM] | Dmax [2] [%] | DC50 [2] [nM] |
| --- | --- | --- | --- | --- |
| Cc1ncsc1-c1ccc([C@H](C)NC(=O)[C@@H]2C[C@@H](O)CN2C(=O)[C@@H](c2cc(OCCN3CC4(Cc5cc(-c6ccccc6O)nnc5N4)C3)no2)C(C)C)cc1 (racemic) [Compound 186, (2S,4R)-4-hydroxy-1-((R)-2-(3-(2-(3′-(2-hydroxyphenyl)-5′,7′-dihydrospiro[azetidine-3,6′-pyrrolo[2,3-c]pyridazin]-1-yl)ethoxy)isoxazol-5-yl)-3-methylbutanoyl)-N-((S)-1-(4-(4-methylthiazol-5-yl)phenyl)ethyl)pyrrolidine-2-carboxamide] | A (“A” indicates maximum degradation ≥ 75%) | > 10 | > 75 | > 100 |
| Cc1ncsc1-c1ccc([C@H](C)NC(=O)[C@@H]2C[C@@H](O)CN2C(=O)[C@@H](c2cc(N3CCC(C(=O)N4CCc5[nH]c6nnc(-c7ccccc7O)cc6c5C4)CC3)no2)C(C)C)cc1 (racemic) [Compound 187, (2S,4R)-4-hydroxy-1-((R)-2-(3-(4-(3-(2-hydroxyphenyl)-6,7,8,9-tetrahydro-5H-pyrido[3′,4′:4,5]pyrrolo[2,3-c]pyridazine-6-carbonyl)piperidin-1-yl)isoxazol-5-yl)-3-methylbutanoyl)-N-((S)-1-(4-(4-methylthiazol-5-yl)phenyl)ethyl)pyrrolidine-2-carboxamide] | A (“A” indicates maximum degradation ≥ 75%) | > 10 | < 50 |  |
| Cc1ncsc1-c1ccc(CNC(=O)[C@@H]2C[C@@H](O)CN2C(=O)[C@@H](NC(=O)CCCCCNC(=O)[C@H]2CCc3[nH]c4nnc(-c5ccccc5O)cc4c3C2)C(C)(C)C)cc1 (racemic) [Compound 189, (S)-N-(6-(((S)-1-((2S,4R)-4-hydroxy-2-((4-(4-methylthiazol-5-yl)benzyl)carbamoyl)pyrrolidin-1-yl)-3,3-dimethyl-1-oxobutan-2-yl)amino)-6-oxohexyl)-3-(2-hydroxyphenyl)-6,7,8,9-tetrahydro-5H-pyridazino[3,4-b]indole-6-carboxamide] | C (“C” indicates maximum degradation < 50%) |  | < 50 |  |
| Cc1ncsc1-c1ccc([C@H](C)NC(=O)[C@@H]2C[C@@H](O)CN2C(=O)[C@@H](c2cc(N3CCC(CN4CCc5[nH]c6nnc(-c7ccccc7O)cc6c5C4)CC3)no2)C(C)C)cc1 (racemic) [Compound 193, (2S,4R)-4-hydroxy-1-((R)-2-(3-(4-((3-(2-hydroxyphenyl)-5,7,8,9-tetrahydro-6H-pyrido [3′,4′:4,5]pyrrolo[2,3-c]pyridazin-6-yl)methyl)piperidin-1-yl)isoxazol-5-yl)-3-methylbutanoyl)-N-((S)-1-(4-(4-methylthiazol-5-yl)phenyl)ethyl)pyrrolidine-2-carboxamide] | A (“A” indicates maximum degradation ≥ 75%) | > 10 | > 50 | > 100 |
| Cc1ncsc1-c1ccc([C@H](C)NC(=O)[C@@H]2C[C@@H](O)CN2C(=O)[C@@H](c2cc(OCC(=O)N3CCc4[nH]c5nnc(-c6ccccc6O)cc5c4C3)no2)C(C)C)cc1 (racemic) [Compound 194, (2S,4R)-4-hydroxy-1-((R)-2-(3-(2-(3-(2-hydroxyphenyl)-5,7,8,9-tetrahydro-6H-pyrido[3′,4′:4,5]pyrrolo[2,3-c]pyridazin-6-yl)-2-oxoethoxy)isoxazol-5-yl)-3-methylbutanoyl)-N-((S)-1-(4-(4-methylthiazol-5-yl)phenyl)ethyl)pyrrolidine-2-carboxamide] | C (“C” indicates maximum degradation < 50%) |  | < 50 |  |
| Cc1ncsc1-c1ccc(CNC(=O)[C@@H]2C[C@@H](O)CN2C(=O)[C@@H](NC(=O)CCCCCNC(=O)[C@@H]2CCc3[nH]c4nnc(-c5ccccc5O)cc4c3C2)C(C)(C)C)cc1 (racemic) [Compound 195, (R)-N-(6-(((S)-1-((2S,4R)-4-hydroxy-2-((4-(4-methylthiazol-5-yl)benzyl)carbamoyl)pyrrolidin-1-yl)-3,3-dimethyl-1-oxobutan-2-yl)amino)-6-oxohexyl)-3-(2-hydroxyphenyl)-6,7,8,9-tetrahydro-5H-pyridazino[3,4-b]indole-6-carboxamide] | B (“B” indicates maximum degradation ≥ 50%) | > 100 | < 50 |  |
| Cc1ncsc1-c1ccc([C@H](C)NC(=O)[C@@H]2C[C@@H](O)CN2C(=O)[C@@H](c2cc(N3CCN(Cc4cc5cc(-c6ccccc6O)nnc5[nH]4)CC3)no2)C(C)C)cc1 (racemic) [Compound 199, (2S,4R)-4-hydroxy-1-((R)-2-(3-(4-((3-(2-hydroxyphenyl)-7H-pyrrolo[2,3-c]pyridazin-6-yl)methyl)piperazin-1-yl)isoxazol-5-yl)-3-methylbutanoyl)-N-((S)-1-(4-(4-methylthiazol-5-yl)phenyl)ethyl)pyrrolidine-2-carboxamide] | A (“A” indicates maximum degradation ≥ 75%) | > 10 | < 50 |  |
| Cc1ncsc1-c1ccc([C@H](C)NC(=O)[C@@H]2C[C@@H](O)CN2C(=O)C(c2cc(N3CCC(C(=O)N4CCc5[nH]c6nnc(-c7ccccc7O)cc6c5C4)CC3)no2)C(C)C)cc1 (mixture of isomers) [Compound 205, (2S,4R)-4-hydroxy-1-((R)-2-(3-(4-(3-(2-hydroxyphenyl)-6,7,8,9-tetrahydro-5H-pyrido[3′,4′:4,5]pyrrolo[2,3-c]pyridazine-6-carbonyl)piperidin-1-yl)isoxazol-5-yl)-3-methylbutanoyl)-N-((S)-1-(4-(4-methylthiazol-5-yl)phenyl)ethyl)pyrrolidine-2-carboxamide] | C (“C” indicates maximum degradation < 50%) |  | < 50 |  |
| Cc1ncsc1-c1ccc([C@H](C)NC(=O)[C@@H]2C[C@@H](O)CN2C(=O)[C@@H](c2cc(OCCN3CC(n4c(=O)[nH]c5nnc(-c6ccccc6O)cc54)C3)no2)C(C)C)cc1 (racemic) [Compound 206, (2S,4R)-4-hydroxy-1-[(2R)-2-[3-(2-{3-[3-(2-hydroxyphenyl)-6-oxo-7H-imidazo[4,5-c]pyridazin-5-yl]azetidin-1-yl}ethoxy)-1,2-oxazol-5-yl]-3-methylbutanoyl]-N-[(1S)-1-[4-(4-methyl-1,3-thiazol-5-yl)phenyl]ethyl]pyrrolidine-2-carboxamide] | C (“C” indicates maximum degradation < 50%) |  | < 50 |  |
| Cc1ncsc1-c1ccc([C@H](C)NC(=O)[C@@H]2C[C@@H](O)CN2C(=O)[C@@H](c2cc(OCCN3CCN(Cc4cc5cc(-c6ccccc6O)nnc5[nH]4)CC3)no2)C(C)C)cc1 (racemic) [Compound 208, (2S,4R)-4-hydroxy-1-((R)-2-(3-(2-(4-((3-(2-hydroxyphenyl)-7H-pyrrolo[2,3-c]pyridazin-6-yl)methyl)piperazin-1-yl)ethoxy)isoxazol-5-yl)-3-methylbutanoyl)-N-((S)-1-(4-(4-methylthiazol-5-yl)phenyl)ethyl)pyrrolidine-2-carboxamide] | A (“A” indicates maximum degradation ≥ 75%) | > 10 | < 50 |  |
